Patent publication US10647687B2, “Spiropyrazine derivatives as inhibitors of non-apoptotic regulated cell-death” (Helmholtz Zentrum München Deutsches Forschungszentrum für …, priority 2014, dated 2020)
Read-outs that look alike come from different tables or passages of the source.

Key:
Pfa1 cells = assay: Inhibition of non-apoptotic cell death after tamoxifen-induced GPx4 knockout (Pfa1/TAM, Example B.4); format: cell-based, mouse
From the text: To combat high intracellular ROS levels, mammalian cells have evolved an intricate network of ROS scavenging in cells, in which the thioredoxin and glutathione (GSH) dependent systems prevail. […] Knockout of GPx4 in neurons causes massive neurodegeneration in cortical, cerebellar and hippocampal neurons underscoring the high relevance of ROS-induced cell death signaling in the brain. Briefly, immortalised fibroblasts from these mice were made to contain tamoxifen-inducible CreERT2, which catalyzes the functional ablation of both copies of GPx4 and resulting in a complete knockout of GPx4, a massive ROS burst, and cell death in cell culture. These cells (Pfa1 cells) were used to characterize compounds disclosed herein, whereby tamoxifen (TAM) was given on day 0 along with the compound under test, and 72 hours later cell survival was evaluated using AlamarBlue.

SH-SY5Y cells = assay: Specificity: TNF-alpha-induced apoptosis in SH-SY5Y cells (Example B.3); format: cell-based, human; conditions: compound 1 μM, TNF-alpha 10 ng/mL, FIG. 1
Method: SH-SY5Y cells were propagated and seeded in 96-well plates, together with compound N-1, N-2, N-10 of Table 1-N (FIG. 1A), compound O/S-6 or O/S-3 of Table 1-O/S (FIG. 1B), or compound C-12, C-91, or C-205 of Table 1-C (FIG. 1C) (each 1 μM) and TNF-alpha was added (final concentration: 10 ng/mL) to induce apoptosis. The apoptosis and pan-caspase inhibitor z-vad (final concentration: 50 μM) and the necroptosis inhibitor Necrostatin-1 (Nec-1; final concentration: 5 μM) were used for comparison. Control wells were established with vehicle only (DMSO), with and without treatment with TNF-alpha to induce apoptosis. Cells were incubated, and cell survival was detected and quantified. Percentage cell survival after TNF-alpha-induced apoptosis is shown (error bars indicate standard deviation (SD)).
Briefly, SH-SY5Y cells were propagated and seeded in 96-well plates, together with the compound to be tested (1 μM), generally as described in Example B.1, except they were seeded at 1,000 cell/well and instead of BSO, TNF-alpha (Invitrogen) was added to a final concentration of 10 ng/mL to induce apoptosis. The apoptosis and pan-caspase inhibitor Z-VAD-fink (Enzo Life Science; final concentration 50 μM) and the necroptosis inhibitor Necrostatin-1 (Nec-1; Enzo Life Science; final concentration 5 μM) were used for comparison. Control wells were established with vehicle only (DMSO), with and without treatment with TNF-alpha to induce apoptosis. Cells were incubated, and cell survival was detected and quantified as described in Example B.1.

[1] = test system: mouse hippocampal cell line (Ht22); assay: Inhibition of glutamate-induced non-apoptotic cell death (Ht22/GLU, Example B.2); format: cell-based
From the text: Glutamate toxicity is conferred on cells from the mouse hippocampal cell line (Ht22) by inhibition of the cysteine/glutamate antiporter, System xc-, leading to impaired cysteine uptake and subsequent GSH depletion. This model is frequently used for mimicking glutathione depletion following oxidative stress in stroke, brain trauma and other neurodegenerative diseases and cellular conditions following ischemia (for example: van Leyen et al, J. Neurochem. 92:824-30 (2005)).
Compounds disclosed herein were evaluated for their ability to promote cell survival upon administration of a lethal dose of glutamate (GLU) to the cell-culture medium.
Briefly, Ht22cells (ATCC or Invitrogen) were propagated DMEM supplemented with 10% FBS/1% Penicillin-Streptomycin, and then seeded onto 96-well plates at a concentration of 2,000 cells/well in 100 μL of MEDIA, simultaneously with glutamate (Sigma Aldrich) to a final concentration of 5 mM, together with increasing concentrations of the compound to be tested (0.5 pM to 100 μM), and the plates incubated at 37° C./5% CO2 for 72 hours. Compound dilutions were prepared from 10 mM stocks dissolved in DMSO and diluted in media. Cells treated with glutamate alone were used as negative control and alpha-tocopherol (Sigma Aldrich) was used as positive control. Compound concentrations were tested in triplicate. After incubation, cell survival was detected and quantified as described in Example B.1.

[2] = Cellular toxicity, Pfa1 cells without TAM (Example B.5); format: cell-based; conditions: mouse, read-out: TC50 (the source's name)
From the text: An estimate of the toxicity for compounds disclosed herein was obtained by using the same assay as described in Example B.4, but without the addition of TAM. […] Such TC50 values obtained for certain compounds disclosed herein, together with an approximate therapeutic window (estimated by dividing each TC50 by the corresponding IC50 determined from example B.4) are shown in Table 3 and Table 4.

[3] = test system: human neuroblastoma cell line SH-SY5Y; assay: Inhibition of BSO-induced non-apoptotic cell death (SH-SY5Y/BSO, Example B.1); format: cell-based; conditions: BSO-induced non-apoptotic cell death, SH-SY5Y cells, 50 μM BSO, 72 hours
From the text: L-Buthionine sulfoximine (BSO) is a well-known glutathione (GSH) depletory, which inhibits gamma-glutamyl-cysteine-synthetase, the enzyme catalyzing the rate-limiting step in GSH biosynthesis. The human neuroblastoma cell line SH-SY5Y is sensitive to BSO-induced intracellular glutathione depletion, which causes high levels of reactive oxygen species (ROS) and cellular stress mimicking cellular conditions following ischemia (cf., e.g., Yamada et al., Neurochem. Int. 59:1003-9 (2011)).
Compounds disclosed herein were evaluated for their ability to promote cell survival upon administration of a lethal dose of BSO to cell-culture medium. […] After incubation, cell survival was detected using the live/dead cell assay AquaBluer™ (MultiTarget Pharmaceuticals) and quantified using a fluorescence plate reader (excitation filter: 530-560 nm/emission filter: 590 nm) (SpectraMax M4; Molecular Devices). Fluorescence data so obtained was normalised to the percentage of surviving cells and IC50 values calculated using the GraphPad Prism (GraphPad Software, Inc) software package.

[4] = Mus musculus, methylated analogues of C-2
[5] = HT-22, 5 mM glutamate, 72 hours, cell survival, read-out: Ht22/GLU
[6] = Mus musculus, tamoxifen on day 0, cell survival after 72 hours
[7] = * not tested at higher concentrations
[8] = HT-22, 72 h, read-out: Ht22/GLU [μM]
[9] = HT-22, glutamate-induced non-apoptotic cell death, Ht22 cells, read-out: Ht22/GLU
[10] = Mus musculus, tamoxifen-induced GPx4 knockout, Pfa1 cells

Row | Compound | IC50 [1, 5] [µM] | IC50 (Pfa1 cells; [6]) [µM] | CC50 [2, 7] [µM] | other results
1 | CN1/C(=N/Cc2cccc(Cl)c2)C2(CCCCC2)N(C)c2ccccc21 [C-2-2Me] |  |  |  | IC50 (Pfa1 cells; [4]): > 10 µM
2 | CN1c2ccccc2N=C(NCc2cccc(Cl)c2)C12CCCCC2 [C-2-Me-I] |  |  |  | IC50 (Pfa1 cells; methylated analogues of C-2): > 10 µM
3 | Clc1cccc(CNC2=Nc3ccccc3NC23CCCCC3)c1 [C-2] |  |  |  | IC50 (Pfa1 cells; [4]): < 0.01 µM
4 | CC1CCC2(CC1)Nc1ccccc1N=C2NCc1ccccc1Cl (stereo not drawn) [C-91] |  |  |  | Percentage cell survival after TNF-alpha-induced apoptosis (SH-SY5Y cells): Non-inhibition of apoptotic cell-death
5 | Clc1ccccc1CNC1=Nc2ccccc2NC12CCCCCC2 [C-205] |  |  |  | Percentage cell survival after TNF-alpha-induced apoptosis (SH-SY5Y cells): Non-inhibition of apoptotic cell-death
6 | CC(C)CCNC1=Nc2ccccc2NC12CCCCCC2 [D-1] | < 1 | < 2 | 10 to 50 | 
7 | c1ccc2c(c1)CCC2NC1=Nc2ccccc2NC12CCCCC2 [D-2] | < 1 | < 2 | 10 to 50 | 
8 | c1ccc2c(c1)CCC2NC1=Nc2ccccc2NC12CCOCC2 [D-3] | < 5 | < 2 | 50 to 100 | 
9 | c1ccc2c(c1)CCCC2NC1=Nc2ccccc2NC12CCCCC2 [D-4] | < 0.5 | < 0.2 | 20 to 50 | 
10 | c1ccc2c(c1)CCC2NC1=Nc2ccccc2NC12CCNCC2 [D-5] | < 0.2 | < 0.1 | 5 to 10 | 
11 | c1ccc2c(c1)N=C(NCCc1c[nH]c3ccccc13)C1(CCNCC1)N2 [D-6] | < 0.5 | < 0.1 | 5 to 10 | 
12 | c1ccc2c(c1)CCCC2NC1=Nc2ccccc2NC12CCNCC2 [D-7] | < 0.2 | < 0.1 | 10 to 20 | 
13 | Clc1cccc(CNC2=Nc3ccccc3NC23CC2CCC(C3)N2)c1 [D-8] |  | < 0.05 | 2 to 5 | IC50 [1, 8]: < 0.05 µM
14 | c1ccc(CNC2=Nc3ccccc3NC23CC2CCC(C3)N2)cc1 [D-9] |  | < 0.5 | 5 to 10 | IC50 [1, 8]: < 0.5 µM
15 | Clc1cccc(CNC2=Nc3ncccc3NC23CCCCC3)c1 [D-10] | < 5 | < 5 | 1 to 5 | 
16 | Clc1cccc(CNC2=Nc3cc(Cl)ncc3NC23CCCCC3)c1 [D-11] | < 5 | < 5 | 10 to 50 | 
17 | c1csc(CNC2=Nc3ccccc3NC23CCCCC3)c1 [D-12] | < 1 | < 5 | 10 to 50 | 
18 | c1cncc(CNC2=Nc3ccccc3NC23CCCCC3)c1 [D-13] | < 5 | < 5 | 50 to 100 | 

Row | Compound | IC50 [1, 5] [µM] | IC50 (Pfa1 cells; [6]) [µM] | CC50 [2, 7] [µM] | other results
19 | CCOC(=O)c1ccc2c(c1)N=C(NC1CCCCC1)C1(CCCCC1)N2 [D-14] | < 0.5 | < 1 | 10 to 50 | 
20 | CC(C)(C)NC1=Nc2ccccc2NC12CCOCC2 [D-15] | < 5 | < 5 | 50 to 100 | 
21 | CC(C)(C)NC1=Nc2ccccc2NC12CCSCC2 [D-16] | < 1 | < 1 | > 5 | 
22 | Cc1cc(CNC2=Nc3ccccc3NC23CCCCC3)on1 [D-17] | < 2 | < 5 | > 50 | 
23 | Clc1cc2c(cc1Cl)NC1(CCCCC1)C(NCc1cccnc1)=N2 [D-19] | < 0.05 | < 0.5 | 10 to 50 | 
24 | c1ccc2c(c1)N=C(NCc1nccs1)C1(CCCCC1)N2 [D-20] | < 2 | < 5 | > 50 | 
25 | Clc1cc2c(cc1Cl)NC1(CCCCC1)C(NCc1cccs1)=N2 [D-21] | < 0.2 | < 0.5 | 5 to 10 | 
26 | c1ccc2c(c1)N=C(NCc1cncs1)C1(CCCCC1)N2 [D-22] | < 5 | < 5 | > 50 | 
27 | c1coc(CNC2=Nc3ccccc3NC23CCCCC3)c1 [D-23] | < 5 | < 5 | > 50 | 
28 | c1ccc2c(c1)N=C(NCc1ccncc1)C1(CCCCC1)N2 [D-24] | < 5 | < 5 | > 50 | 
29 | c1csc(CNC2=Nc3ccccc3NC23CCNCC3)c1 [D-181] | < 0.1 | < 0.5 | 20 to 50 | 
30 | CN1CCC2(CC1)Nc1cc(Cl)c(Cl)cc1N=C2NCc1cccc(Cl)c1 [F-24] | < 0.02 | < 0.05 | 0.2 to 0.5 | 
31 | C#CCCCCCCCCC(=O)N1CCC2(CC1)Nc1ccccc1N=C2NCc1cccc(Cl)c1 [F-25] | < 0.2 | < 0.2 | 10 to 20 | 
32 | C#CCCCCCCCCC(=O)N1CCC2(CC1)Nc1cc(Cl)c(Cl)cc1N=C2NCc1cccc(Cl)c1 [F-26] | < 0.2 | < 0.2 | 10 to 20 | 
33 | Clc1ccccc1CNC1=Nc2ccccc2NC12CCNCC2 [N-1] |  |  |  | Percentage cell survival after TNF-alpha-induced apoptosis (SH-SY5Y cells): Non-inhibition of apoptotic cell-death
34 | Clc1cccc(CNC2=Nc3ccccc3NC23CCCNCC3)c1 (stereo not drawn) [N-185] |  |  |  | IC50 [3]: < 0.05 µM; IC50 [1, 9]: < 0.5 µM; IC50 (Pfa1 cells; [10]): < 0.2 µM; CC50 ([2]; cellular toxicity): 1 to 2 µM
35 | Clc1ccc(CNC2=Nc3ccccc3NC23CCOCC3)cc1 [O/S-3] |  |  |  | Percentage cell survival after TNF-alpha-induced apoptosis (SH-SY5Y cells): Non-inhibition of apoptotic cell-death
36 | O=S1(=O)CCC2(CC1)Nc1ccccc1N=C2NCc1cccc(Cl)c1 [O/S-370] |  |  |  | IC50 [3]: < 1 µM; IC50 [1, 9]: < 5 µM; IC50 (Pfa1 cells; [10]): < 2 µM; CC50 ([2]; cellular toxicity): 50 to 100 µM
